In PubChem BioAssay (NCI):
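Where inhibition never reached the appropriate level, the endpoint shown equals the highest concentration tested. Otherwise, values were interpolated linearly from a five-concentration, 48-hour dose response in 96-well plates. GI50 is the concentration that inhibits growth by half. TGI is the concentration that stops growth completely.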

How the values were obtained:
Assay in all cases: inhibition of tumour cell growth, NCI panel, 48 h
[1] = test system: 786-0 renal
[2] = test system: A498 renal
[3] = test system: A549 NSCLC
[4] = test system: ACHN renal
[5] = test system: BT-549 breast
[6] = test system: CAKI-1 renal
[7] = test system: CCRF-CEM leukemia
[8] = test system: COLO 205 colon
[9] = test system: DU-145 prostate
[10] = test system: EKVX NSCLC
[11] = test system: HCC-2998 colon
[12] = test system: HCT-116 colon
[13] = test system: HCT-15 colon
[14] = test system: HL-60(TB) leukemia
[15] = test system: HOP-62 NSCLC
[16] = test system: HOP-92 NSCLC
[17] = test system: HS 578T breast
[18] = test system: HT29 colon
[19] = test system: IGROV1 ovarian
[20] = test system: K-562 leukemia
[21] = test system: KM12 colon
[22] = test system: LOX IMVI melanoma
[23] = test system: M14 melanoma
[24] = test system: MALME-3M melanoma
[25] = test system: MCF7 breast
[26] = test system: MDA-MB-231 breast
[27] = test system: MDA-MB-435
[28] = test system: MOLT-4 leukemia
[29] = test system: NCI-H226 lung
[30] = test system: NCI-H23 lung
[31] = test system: NCI-H460 lung
[32] = test system: NCI-H522 lung
[33] = test system: NCI/ADR-RES ovarian
[34] = test system: OVCAR-3 ovarian
[35] = test system: OVCAR-4 ovarian
[36] = test system: OVCAR-5 ovarian
[37] = test system: OVCAR-8 ovarian
[38] = test system: PC-3 prostate
[39] = test system: RPMI-8226 leukemia
[40] = test system: RXF 393 renal
[41] = test system: SF-268 CNS
[42] = test system: SF-295 CNS
[43] = test system: SF-539 CNS
[44] = test system: SK-MEL-2 melanoma
[45] = test system: SK-MEL-28 melanoma
[46] = test system: SK-MEL-5 melanoma
[47] = test system: SK-OV-3 ovarian
[48] = test system: SN12C renal
[49] = test system: SNB-19 CNS
[50] = test system: SNB-75 CNS
[51] = test system: SR leukemia
[52] = test system: SW-620 colon
[53] = test system: T-47D breast
[54] = test system: TK-10 renal
[55] = test system: U251 CNS
[56] = test system: UACC-257 melanoma
[57] = test system: UACC-62 melanoma
[58] = test system: UO-31 renal

`COc1ccc(/C=N\NC(=O)c2ccc3nc(-c4ccc(Cl)cc4)[nH]c3c2)cc1` was tested, and the GI50 [1] was 1.93 µM, the TGI [1] was 3.67 µM and the GI50 [2] was 2.45 µM. For the same compound, the TGI [2] was 9.87 µM, the GI50 [3] was 2.46 µM and the TGI [3] was 5.65 µM. For the same compound, the GI50 [4] was 2 µM, the TGI [4] was 5.04 µM and the GI50 [5] was 3.36 µM. The TGI [5] was 16.4 µM, the GI50 [6] was 2.1 µM and the TGI [6] was 6.03 µM. For the same compound, the GI50 [7] was 4.9 µM, the TGI [7] was > 100 µM and the GI50 [8] was 1.94 µM. It also gave a TGI [8] of 5.43 µM, a GI50 [9] of 1.98 µM and a TGI [9] of 4.61 µM. The GI50 [10] was 2.11 µM, the TGI [10] was 5.84 µM and the GI50 [11] was 2.57 µM. The TGI [11] was 6.44 µM, the GI50 [12] was 2.14 µM and the TGI [12] was 5.12 µM. It also gave a GI50 [13] of 3.24 µM, a TGI [13] of 12.8 µM and a GI50 [14] of 13 µM. For the same compound, the TGI [14] was > 100 µM, the GI50 [15] was 1.88 µM and the TGI [15] was 6.37 µM. The GI50 [16] was 1.52 µM, the TGI [16] was 4.11 µM and the GI50 [17] was 2.3 µM. The TGI [17] was 5.64 µM, the GI50 [18] was 3.09 µM and the TGI [18] was 22.1 µM. It also gave a GI50 [19] of 1.65 µM, a TGI [19] of 3.97 µM and a GI50 [20] of 2.69 µM. For the same compound, the TGI [20] was 11.2 µM, the GI50 [21] was 3.03 µM and the TGI [21] was 9.58 µM. It also gave a GI50 [22] of 2.19 µM, a TGI [22] of 4.01 µM and a GI50 [23] of 2.41 µM. For the same compound, the TGI [23] was 7.76 µM, the GI50 [24] was 1.67 µM and the TGI [24] was 3.63 µM. It also gave a GI50 [25] of 1.47 µM, a TGI [25] of 3.84 µM and a GI50 [26] of 2.42 µM. For the same compound, the TGI [26] was 5.45 µM, the GI50 [27] was 3.11 µM and the TGI [27] was 9.84 µM. It also gave a GI50 [28] of 4.53 µM, a TGI [28] of 30.4 µM and a GI50 [29] of 1.79 µM. It also gave a TGI [29] of 4.43 µM, a GI50 [30] of 2.74 µM and a TGI [30] of 11.2 µM. The GI50 [31] was 1.83 µM, the TGI [31] was 3.59 µM and the GI50 [32] was 7.6 µM. For the same compound, the TGI [32] was 81.5 µM, the GI50 [33] was 7.81 µM and the TGI [33] was > 100 µM. The GI50 [34] was 2.28 µM, the TGI [34] was 5.14 µM and the GI50 [35] was 1.79 µM. It also gave a TGI [35] of 3.36 µM, a GI50 [36] of 2.35 µM and a TGI [36] of 6.89 µM. It also gave a GI50 [37] of 3.19 µM, a TGI [37] of 11.5 µM and a GI50 [38] of 1.66 µM. The TGI [38] was 3.76 µM, the GI50 [39] was 0.997 µM and the TGI [39] was 4.77 µM. The GI50 [40] was 1.86 µM, the TGI [40] was 3.8 µM and the GI50 [41] was 2.09 µM. For the same compound, the TGI [41] was 5.1 µM, the GI50 [42] was 2.23 µM and the TGI [42] was 5.05 µM. The GI50 [43] was 1.73 µM, the TGI [43] was 3.46 µM and the GI50 [44] was 3.59 µM. For the same compound, the TGI [44] was 13.8 µM, the GI50 [45] was 1.79 µM and the TGI [45] was 3.37 µM. For the same compound, the GI50 [46] was 1.89 µM, the TGI [46] was 3.88 µM and the GI50 [47] was 2.3 µM. For the same compound, the TGI [47] was 12.8 µM, the GI50 [48] was 2.46 µM and the TGI [48] was 6.79 µM. The GI50 [49] was 3.13 µM, the TGI [49] was 7.95 µM and the GI50 [50] was 1.53 µM. For the same compound, the TGI [50] was 4.58 µM, the GI50 [51] was 2.87 µM and the TGI [51] was 15.4 µM. It also gave a GI50 [52] of 2.41 µM, a TGI [52] of 5.58 µM and a GI50 [53] of 1.94 µM. The TGI [53] was 4.83 µM, the GI50 [54] was 2.95 µM and the TGI [54] was 6.59 µM. For the same compound, the GI50 [55] was 2.43 µM, the TGI [55] was 5.22 µM and the GI50 [56] was 3.27 µM. The TGI [56] was 10.1 µM, the GI50 [57] was 1.94 µM and the TGI [57] was 4.47 µM. It also gave a GI50 [58] of 1.86 µM and a TGI [58] of 6.38 µM.
